# Assay results published in patent US20230295212A1 (ROME Therapeutics, Inc., priority 2022, published 2023).
# Molecular target: T1, LINE1 reverse transcriptase (Homo sapiens, UniProt O00370)
# T1 construct: expressed in transfected cells; host or cells: HeLa Tet-On 3G (Takara, cat no 631183)
# Assay: Stable artificial-intron Cis LINE1 reporter assay (HeLa Tet-On 3G, Firefly luciferase)
# Format: cell-based
# Conditions: HeLa L1 artificial-intron reporter cells, doxycycline 500 ng/mL, 72 h, class symbols
# Protocol: Exemplary compounds, were tested for the ability to inhibit LINE1 reverse transcriptase using a stable artificial-intron Cis LINE1 reporter assay. Assay procedures and results are described below.
# A stable HeLa Tet-On 3G (Takara, cat no 631183) cell line expressing a bi-directional inducible LINE1 construct was generated as described in Xie, Y. et al. “Cell division promotes efficient retrotransposition in a stable L1 reporter cell line,” Mobile DNA (2013) 4:10. Single cell clones were screened for high Luciferase expression and the highest expression Firefly expressing clone was chosen for compound testing.
# Test compounds were serially diluted in DMSO and spotted in 96-well plates. Subsequently, the HeLa Li artificial-intron reporter cells were plated into the compound-containing wells (8,000 cells/well), and the cells were induced for reporter expression with doxycycline (Sigma-Aldrich cat #D9891) at a final concentration of 500 ng/mL. Luminescence was measured 72 h after plating using the Dual-Glo Luciferase Assay System (Promega cat #E2940) following the manufacturer's instructions. The Firefly Luciferase activity was used to report LINE1 activity.
# T1 sequence (O00370 whole entry, looked up): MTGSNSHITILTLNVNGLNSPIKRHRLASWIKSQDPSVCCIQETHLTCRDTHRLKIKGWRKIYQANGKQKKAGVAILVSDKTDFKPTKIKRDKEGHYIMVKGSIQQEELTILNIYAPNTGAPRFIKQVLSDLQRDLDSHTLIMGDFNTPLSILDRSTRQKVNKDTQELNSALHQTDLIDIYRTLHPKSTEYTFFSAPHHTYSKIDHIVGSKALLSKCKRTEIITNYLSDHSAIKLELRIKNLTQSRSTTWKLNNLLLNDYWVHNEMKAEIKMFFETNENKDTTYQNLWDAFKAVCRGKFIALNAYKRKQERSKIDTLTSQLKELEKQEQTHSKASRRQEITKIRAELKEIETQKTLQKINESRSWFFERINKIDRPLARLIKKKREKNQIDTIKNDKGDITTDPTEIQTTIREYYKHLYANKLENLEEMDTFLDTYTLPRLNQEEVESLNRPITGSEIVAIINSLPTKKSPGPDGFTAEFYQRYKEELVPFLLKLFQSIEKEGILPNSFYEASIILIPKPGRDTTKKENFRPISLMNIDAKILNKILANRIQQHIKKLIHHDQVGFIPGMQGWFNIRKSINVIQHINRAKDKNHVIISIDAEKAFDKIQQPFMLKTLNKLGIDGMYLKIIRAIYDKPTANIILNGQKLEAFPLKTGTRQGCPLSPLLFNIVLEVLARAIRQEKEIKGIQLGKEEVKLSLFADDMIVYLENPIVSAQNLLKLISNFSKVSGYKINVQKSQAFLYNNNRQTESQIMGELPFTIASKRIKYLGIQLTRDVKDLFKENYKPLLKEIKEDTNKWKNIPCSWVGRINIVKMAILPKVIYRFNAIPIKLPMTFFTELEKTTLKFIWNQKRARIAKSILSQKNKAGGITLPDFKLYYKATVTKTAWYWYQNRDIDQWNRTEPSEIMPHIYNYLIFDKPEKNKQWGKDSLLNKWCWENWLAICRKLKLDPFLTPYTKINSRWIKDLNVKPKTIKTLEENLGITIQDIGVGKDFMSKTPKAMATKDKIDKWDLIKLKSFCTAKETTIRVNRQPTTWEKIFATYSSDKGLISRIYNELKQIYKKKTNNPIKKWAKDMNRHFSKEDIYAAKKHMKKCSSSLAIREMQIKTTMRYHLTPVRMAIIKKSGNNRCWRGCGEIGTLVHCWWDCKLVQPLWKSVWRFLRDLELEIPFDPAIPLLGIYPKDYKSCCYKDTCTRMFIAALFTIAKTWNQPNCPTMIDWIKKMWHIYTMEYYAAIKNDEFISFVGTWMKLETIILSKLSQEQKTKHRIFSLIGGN
row,IC50,Compound
1,≤ 50 nM,"C#C[C@]1(CO)O[C@@H](n2cnc3c(N)nc(F)nc32)[C@@H](F)[C@@H]1O [Compound 42, (2R,3R,4S,5R)-5-(6-amino-2-fluoro-9H-purin-9-yl)-2-ethynyl-4-fluoro-2-(hydroxymethyl) tetrahydrofuran-3-ol]"
2,250 to 1000 nM,"Nc1nc(=O)n([C@@H]2O[C@@](CO)(CCl)[C@@H](O)[C@@H]2Cl)cc1F [Compound 137, 4-amino-1-[(2R,3S,4R,5R)-3-chloro-5-(chloromethyl)-4-hydroxy-5-(hydroxymethyl)oxolan-2-yl]-5-fluoropyrimidin-2-one]"
3,> 1000 nM,"C#C[C@]1(CO)O[C@@H](n2ccc(N)nc2=O)[C@H](F)[C@@H]1O [Compound 32, 4-amino-1-((2R,3R,4R,5R)-5-ethynyl-3-fluoro-4-hydroxy-5-(hydroxymethyl)tetrahydrofuran-2-yl)pyrimidin-2(1H)-one]"
4,≤ 50 nM,Nc1ccn([C@@H]2O[C@@](CO)(CBr)[C@@H](O)[C@@H]2F)c(=O)n1 [Compound 172]
5,≤ 50 nM,"[2H]C([2H])(Cl)[C@]1(CO)O[C@@H](n2cc(F)c(N)nc2=O)[C@@H](F)[C@@H]1O [Compound 175, 4-amino-1-((2R,3S,4R,5R)-5-(chloromethyl-d2)-3-fluoro-4-hydroxy-5-(hydroxymethyl)tetrahydrofuran-2-yl)-5-fluoropyrimidin-2(1H)-one]"
6,> 1000 nM,"O=c1nc(NO)ccn1[C@@H]1O[C@@](CO)(CCl)[C@@H](O)[C@H]1F [Compound 28, 1-((2R,3R,4R,5R)-5-(chloromethyl)-3-fluoro-4-hydroxy-5-(hydroxymethyl)tetrahydrofuran-2-yl)-4-(hydroxyamino)pyrimidin-2(1H)-one]"
7,≤ 50 nM,"C=C[C@]1(CO)O[C@@H](n2cc(F)c(N)nc2=O)[C@@H](F)[C@@H]1O [Compound 76, 4-amino-1-[(2R,3S,4R,5R)-5-ethenyl-3-fluoro-4-hydroxy-5-(hydroxymethyl)oxolan-2-yl]-5-fluoropyrimidin-2-one]"
8,> 1000 nM,"Nc1nc2c(ncn2[C@@H]2O[C@@](CO)(CCl)[C@@H](O)[C@@H]2F)c(=O)[nH]1 [Compound 70, 2-amino-9-((2R,3S,4R,5R)-5-(chloromethyl)-3-fluoro-4-hydroxy-5-(hydroxymethyl)-tetrahydrofuran-2-yl)-1,9-dihydro-6H-purin-6-one]"
9,50 to 100 nM,"Nc1ccn([C@@H]2O[C@@](CO)(CF)[C@@H](O)[C@@H]2F)c(=O)n1 [Compound 113, 4-amino-1-((2R,3S,4R,5R)-3-fluoro-5-(fluoromethyl)-4-hydroxy-5-(hydroxymethyl)-tetrahydrofuran-2-yl)pyrimidin-2(1H)-one]"
10,100 to 250 nM,"C=C[C@]1(CO)O[C@@H](n2cnc3c(N)nc(F)nc32)[C@@H](F)[C@@H]1O [Compound 80, (2R,3R,4S,5R)-5-(6-amino-2-fluoropurin-9-yl)-2-ethenyl-4-fluoro-2-(hydroxymethyl)oxolan-3-ol]"
11,50 to 100 nM,"CC[C@]1(CO)O[C@@H](n2cc(F)c(N)nc2=O)[C@@H](O)[C@@H]1O [Compound 78, 4-amino-1-((2R,3S,4S,5R)-5-ethyl-3,4-dihydroxy-5-(hydroxymethyl)tetrahydrofuran-2-yl)-5-fluoropyrimidin-2(1H)-one]"
12,50 to 100 nM,"Nc1nc(=O)n([C@@H]2O[C@](/C=C\F)(CO)[C@@H](O)[C@@H]2F)cc1F [Compound 123, 4-amino-5-fluoro-1-((2R,3S,4R,5R)-3-fluoro-5-((Z)-2-fluorovinyl)-4-hydroxy-5-(hydroxymethyl)tetrahydrofuran-2-yl)pyrimidin-2(1H)-one]"

# Further lines, the compound ahead of its results:
row,Compound,IC50
1,"Nc1nc(=O)n([C@H]2C[C@H](O)[C@](CO)(CBr)O2)cc1F [Compound 88, 4-amino-1-((2R,4S,5R)-5-(bromomethyl)-4-hydroxy-5-(hydroxymethyl)tetrahydrofuran-2-yl)-5-fluoropyrimidin-2(1H)-one]",≤ 50 nM
2,"Nc1ccn([C@H]2C[C@H](O)[C@](CO)(C3CC3)O2)c(=O)n1 [Compound 16, 4-amino-1-((2R,4S,5R)-5-cyclopropyl-4-hydroxy-5-(hydroxymethyl)tetrahydrofuran-2-yl)pyrimidin-2(1H)-one]",250 to 1000 nM
3,"O=c1ccn([C@@H]2OC(CO)(CO)[C@@H](O)[C@@H]2F)c(=O)[nH]1 [Compound 3, 1-((2R,3S,4R)-3-fluoro-4-hydroxy-5,5-bis(hydroxymethyl)tetrahydrofuran-2-yl)pyrimidine-2,4(1H,3H)-dione]",> 1000 nM
4,"C#C[C@]1(CO)O[C@@H](n2ccc(=O)[nH]c2=O)[C@H](F)[C@@H]1O [Compound 33, 1-((2R,3R,4R,5R)-5-ethynyl-3-fluoro-4-hydroxy-5-(hydroxymethyl)tetrahydrofuran-2-yl)pyrimidine-2,4(1H,3H)-dione]",> 1000 nM
5,"C#C[C@]1(CO)O[C@@H](n2cc(F)c(N)nc2=O)C[C@@H]1O [Compound 107, 4-amino-1-((2R,4S,5R)-5-ethynyl-4-hydroxy-5-(hydroxymethyl)tetrahydrofuran-2-yl)-5-fluoropyrimidin-2(1H)-one]",≤ 50 nM
6,"C#C[C@]1(CO)O[C@@H](n2cc(C)c(=O)[nH]c2=O)C[C@@H]1O [Compound 38, 1-((2R,4S,5R)-5-ethynyl-4-hydroxy-5-(hydroxymethyl)tetrahydrofuran-2-yl)-5-methylpyrimidine-2,4(1H,3H)-dione]",> 1000 nM
7,"Cc1cn([C@H]2C[C@H](O)[C@](CO)(N=[N+]=[N-])O2)c(=O)[nH]c1=O [Compound 30, 1-((2R,4S,5R)-5-azido-4-hydroxy-5-(hydroxymethyl)tetrahydrofuran-2-yl)-5-methylpyrimidine-2,4(1H,3H)-dione]",> 1000 nM
8,"Nc1ccn([C@H]2C[C@H](O)[C@](CO)(C(F)(F)F)O2)c(=O)n1 [Compound 21, 4-amino-1-((2R,4S,5R)-4-hydroxy-5-(hydroxymethyl)-5-(trifluoromethyl)tetrahydrofuran-2-yl)pyrimidin-2(1H)-one]",250 to 1000 nM
9,"CC[C@]1(CO)O[C@@H](n2ccc(N)nc2=O)C[C@@H]1O [Compound 44, 4-amino-1-((2R,4S,5R)-5-ethyl-4-hydroxy-5-(hydroxymethyl)tetrahydrofuran-2-yl)pyrimidin-2(1H)-one]",≤ 50 nM
10,"Cc1cn([C@H]2C[C@H](O)[C@](CO)(CCl)O2)c(=O)nc1N [Compound 11, 4-amino-1-((2R,4S,5R)-5-(chloromethyl)-4-hydroxy-5-(hydroxymethyl)tetrahydrofuran-2-yl)-5-methylpyrimidin-2(1H)-one]",> 1000 nM
11,"Cc1cn([C@H]2C[C@H](F)[C@@](C)(CO)O2)c(=O)[nH]c1=O [Compound 180, 1-((2R,4S,5R)-4-fluoro-5-(hydroxymethyl)-5-methyltetrahydrofuran-2-yl)-5-methylpyrimidine-2,4(1H,3H)-dione]",> 1000 nM
12,"C[C@@H]1[C@H](n2ccc(N)nc2=O)O[C@@](CO)(CCl)[C@H]1O [Compound 12, 4-amino-1-((2R,3S,4S,5R)-5-(chloromethyl)-4-hydroxy-5-(hydroxymethyl)-3-methyltetrahydrofuran-2-yl)pyrimidin-2(1H)-one]",250 to 1000 nM
13,"O=c1[nH]c(=O)n([C@@H]2O[C@@](CO)(CCO)[C@@H](O)[C@@H]2F)cc1F [Compound 179, 5-fluoro-1-((2R,3S,4R,5R)-3-fluoro-4-hydroxy-5-(2-hydroxyethyl)-5-(hydroxymethyl)tetrahydrofuran-2-yl) pyrimidine-2,4(1H,3H)-dione]",> 1000 nM
14,"C#C[C@]1(CO)O[C@@H](c2ccc3c(N)ncnn23)C[C@@H]1O [Compound 37, (2R,3S,5R)-5-(4-aminopyrrolo[2,1-f][1,2,4]triazin-7-yl)-2-ethynyl-2-(hydroxymethyl) tetrahydrofuran-3-ol]",≤ 50 nM

# Same assay, conditions: HeLa L1 artificial-intron reporter cells, doxycycline 500 ng/mL, 72 h, numeric bounds
row,IC50,Compound
1,> 30000 nM,"NC(=O)[C@]1(CO)O[C@@H](n2cc(F)c(N)nc2=O)[C@@H](F)[C@@H]1O [Compound 138, (2R,3R,4S,5R)-5-(4-amino-5-fluoro-2-oxopyrimidin-1-yl)-4-fluoro-3-hydroxy-2-(hydroxymethyl)oxolane-2-carboxamide]"
2,> 30000 nM,"O=c1[nH]c(=O)n([C@@H]2O[C@@](CO)(CCl)[C@@H](O)[C@@H]2F)cc1F [Compound 163, 1-[(2R,3S,4R,5R)-5-(chloromethyl)-3-fluoro-4-hydroxy-5-(hydroxymethyl)oxolan-2-yl]-5-fluoro-3H-pyrimidine-2,4-dione]"
3,> 30000 nM,"NC[C@]1(CO)O[C@@H](n2cc(F)c(N)nc2=O)[C@@H](F)[C@@H]1O [Compound 139, 4-amino-1-[(2R,3S,4R,5R)-5-(aminomethyl)-3-fluoro-4-hydroxy-5-(hydroxymethyl)oxolan-2-yl]-5-fluoropyrimidin-2-one]"

# Continued, compound first:
row,Compound,IC50
1,"CO[C@H]1C[C@H](n2ccc(N)nc2=O)O[C@@]1(CO)CCl [Compound 54, 4-amino-1-[(2R,4S,5R)-5-(chloromethyl)-5-(hydroxymethyl)-4-methoxyoxolan-2-yl]-3,4-dihydropyrimidin-2-one]",> 30000 nM
2,"C#C[C@@H]1[C@H](n2ccc(N)nc2=O)O[C@@](CO)(CCl)[C@H]1O [Compound 17, 4-amino-1-((2R,3S,4S,5R)-5-(chloromethyl)-3-ethynyl-4-hydroxy-5-(hydroxymethyl)tetrahydrofuran-2-yl)pyrimidin-2(1H)-one]",> 30000 nM
3,"CC(O)[C@]1(CO)O[C@@H](n2cc(F)c(=O)[nH]c2=O)[C@@H](F)[C@@H]1O (stereo partly drawn) [Compound 162, 5-fluoro-1-[(2R,3S,4R,5S)-3-fluoro-4-hydroxy-5-(1-hydroxyethyl)-5-(hydroxymethyl)oxolan-2-yl]-3H-pyrimidine-2,4-dione]",> 30000 nM
